Assay results published in paper PMC9561263 (2022).

Tested on: 32R-3n (DNA, G4) GCGGTGTGGGAAGAGGGAAGAGGGGGAGGCAG
Assay: UV melting, 260 nm
Conditions: 0.1 M Li+; 0.02 M Tris-HCl pH 7.0; 4 μM DNA, 40 μM ThT; psDNA

ΔTm: ~ 19.8 °C
Compound: Cc1ccc2c(c1)sc(-c1ccc(N(C)C)cc1)[n+]2C
